Assay results: paper PMC11684029, “Discovery of VU6024578/BI02982816: An mGlu1 Positive Allosteric Modulator with Efficacy in Preclinical Antipsychotic and Cognition Models” (Journal of Medicinal Chemistry, 2024)

Legend:
human mGlu1 = target: T1, human mGlu1 (Homo sapiens, UniProt Q13255); test: mGlu1 calcium mobilization (triple-add) PAM assay; type: cell-based
T1 construct: expressed in transfected cells; pcDNA5/TO)
Procedure: Tetracycline-inducible human mGlu1 WT-T-REx-293 cells (Wu et al, Science 2014) were cultured at 37 °C in Dulbecco’s Modified Eagle Medium (DMEM) growth medium containing 10% Tet-tested FBS, 2 mM L-glutamine, 20 mM HEPES, 0.1 mM nonessential amino acids, 1 mM sodium pyruvate, antibiotic/antimycotic, 100 μg/mL hygromycin and 5 μg/mL blasticidin in the presence of 5% CO2. […] The mutant stable cell lines were generated in the same manner as the WT as previously described and cultured in the growth medium described above.
To determine the potency of mGlu1 PAMs in calcium assays, Ca flux was measured as previously described in ACS Chem. Bio. 2014, 9, 2334–2346. Briefly, the day before the assay, human mGlu1 WT-T-REx-293 cells were plated in black-walled, clear-bottomed, poly-D-lysine coated 96-well plates at 80,000 cells/100 μL assay medium (DMEM supplemented with 10% dialyzed FBS, 20 mM HEPES, and 1 mM sodium pyruvate) containing 50 ng/mL of tetracycline to induce mGlu1 expression. The next day, media was removed and the cells were incubated with 50 μL of 1.15 μM Fluo-4 AM dye solution prepared in assay buffer (buffer (Hank’s balanced salt solution, 20 mM HEPES, and 2.5 mM probenecid) for 45 min at 37 °C, the dye was removed and replaced with 45 μL of assay buffer. Then, calcium flux was measured using Flexstation II (Molecular Devices, Sunnyvale, CA). Compounds serially diluted at half log concentrations in DMSO were further diluted in assay buffer. The compounds or DMSO vehicle were added to cells and incubated for 2.5 min and an EC20 concentration of glutamate was added and incubated for 1 min. An ECmax concentration of glutamate was also added to cells that were incubated with DMSO vehicle to accurately calculate the EC20 calcium response. Data were normalized by subtracting the basal florescent peak before EC20 agonist addition from the maximal peak elicited by EC20 agonist and PAMs. Using GraphPad Prism 5.0, the concentration response curves were generated and the potencies of the mGlu1 PAMs were determined.

rat mGlu1 = rat mGlu1 (Rattus norvegicus, UniProt P23385); test: mGlu1 calcium mobilization PAM assay; type: cell-based; details: PAM, calcium flux
[1] = plasma protein binding, equilibrium dialysis; type: in vitro ADME, human; details: fraction unbound
Procedure: (§1) The protein binding of each compound was determined in plasma via equilibrium dialysis employing RED Plates (ThermoFisher Scientific, Rochester, NY). Plasma was added to the 96 well plate containing test compound and mixed thoroughly for a final concentration of 5 μM. Subsequently, an aliquot of the plasma-compound mixture was transferred to the cis chamber (red) of the RED plate, with an phosphate buffer (25 mM, pH 7.4) in the trans chamber. The RED plate was sealed and incubated for 4 h at 37 °C with shaking. At completion, aliquots from each chamber were diluted 1:1 with either plasma (cis) or buffer (trans) and transferred to a new 96 well plate, at which time ice-cold acetonitrile containing internal standard (50 ng/mL carbamazepine) (2 volumes) was added to extract the matrices. The plate was centrifuged (3000 rcf, 10 min) and supernatants transferred and diluted 1:1 (supernatant: water) into a new 96 well plate, which was then sealed in preparation for LC/MS/MS analysis. Each compound was assayed in triplicate within the same 96-well plate. Fraction unbound was determined using the following equation [drawing 1]

[2] = plasma protein binding, equilibrium dialysis; type: in vitro ADME, rat; details: fraction unbound
Procedure: as §1

brain homogenate binding = type: in vitro ADME, rat; details: fraction unbound
[3] = intrinsic clearance, predicted hepatic clearance; type: in vitro ADME, human; details: in vitro predicted hepatic clearance
Procedure: (§2) Human or rat hepatic microsomes (0.5 mg/mL) and 1 μM test compound were incubated in 100 mM potassium phosphate pH 7.4 buffer with 3 mM MgCl2 at 37 °C with constant shaking. After a 5 min preincubation, the reaction was initiated by addition of NADPH (1 mM). At selected time intervals (0, 3, 7, 15, 25, and 45 min), aliquots were taken and subsequently placed into a 96-well plate containing cold acetonitrile with internal standard (50 ng/mL carbamazepine). Plates were then centrifuged at 3000 rcf (4 °C) for 10 min, and the supernatant was transferred to a separate 96-well plate and diluted 1:1 with water for LC/MS/MS analysis. The in vitro half-life (T1/2, min, eq 1), intrinsic clearance (CLint, mL/min/kg, eq 2) and subsequent predicted hepatic clearance (CLhep, mL/min/kg, eq 3) was determined employing the following equations: [drawing 2] 1 where k represents the slope from linear regression analysis of the natural log percent remaining of test compound as a function of incubation time [drawing 3] 2
(§3) ^ascale-up factors: of 20 (human) or 45 (rat) [drawing 4] 3 where Qh (hepatic blood flow, mL/min/kg) is 21 (human) or 70 (rat).

[4] = intrinsic clearance, predicted hepatic clearance; type: in vitro ADME, rat; details: in vitro predicted hepatic clearance
Procedure: as §2, §3

[5] = PAM, calcium flux, EC20 glutamate

T1 sequence (Q13255 19-1194): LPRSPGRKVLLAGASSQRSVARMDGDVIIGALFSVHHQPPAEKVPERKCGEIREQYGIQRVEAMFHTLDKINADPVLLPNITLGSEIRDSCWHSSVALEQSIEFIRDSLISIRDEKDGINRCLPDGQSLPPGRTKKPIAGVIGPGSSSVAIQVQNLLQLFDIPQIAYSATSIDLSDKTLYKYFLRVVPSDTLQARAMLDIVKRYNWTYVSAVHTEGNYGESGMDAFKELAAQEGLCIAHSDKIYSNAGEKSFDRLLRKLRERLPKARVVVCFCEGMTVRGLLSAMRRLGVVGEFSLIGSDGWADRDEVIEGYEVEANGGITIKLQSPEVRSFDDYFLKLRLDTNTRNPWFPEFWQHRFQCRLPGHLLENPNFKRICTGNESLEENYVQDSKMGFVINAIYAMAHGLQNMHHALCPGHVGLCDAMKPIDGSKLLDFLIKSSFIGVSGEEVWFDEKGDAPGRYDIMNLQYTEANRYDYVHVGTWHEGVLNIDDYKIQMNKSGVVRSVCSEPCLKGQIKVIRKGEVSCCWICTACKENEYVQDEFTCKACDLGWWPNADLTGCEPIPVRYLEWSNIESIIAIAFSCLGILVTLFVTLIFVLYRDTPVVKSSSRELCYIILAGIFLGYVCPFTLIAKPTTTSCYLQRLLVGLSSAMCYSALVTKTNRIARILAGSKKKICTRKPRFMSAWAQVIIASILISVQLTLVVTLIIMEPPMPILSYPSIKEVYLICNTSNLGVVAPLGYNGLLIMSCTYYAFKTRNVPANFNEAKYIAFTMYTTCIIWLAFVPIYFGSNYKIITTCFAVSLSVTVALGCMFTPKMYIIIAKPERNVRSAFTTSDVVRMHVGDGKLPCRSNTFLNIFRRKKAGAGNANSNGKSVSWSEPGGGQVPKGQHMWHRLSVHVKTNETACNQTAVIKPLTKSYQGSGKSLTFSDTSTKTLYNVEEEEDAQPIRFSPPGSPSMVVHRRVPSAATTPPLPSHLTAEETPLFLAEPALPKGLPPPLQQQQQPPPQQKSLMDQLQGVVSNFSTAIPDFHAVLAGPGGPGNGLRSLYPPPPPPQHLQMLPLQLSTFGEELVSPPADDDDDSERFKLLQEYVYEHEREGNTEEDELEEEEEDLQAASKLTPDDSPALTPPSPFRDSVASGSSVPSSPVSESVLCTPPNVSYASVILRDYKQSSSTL
rat mGlu1, sequence (P23385 19-1199): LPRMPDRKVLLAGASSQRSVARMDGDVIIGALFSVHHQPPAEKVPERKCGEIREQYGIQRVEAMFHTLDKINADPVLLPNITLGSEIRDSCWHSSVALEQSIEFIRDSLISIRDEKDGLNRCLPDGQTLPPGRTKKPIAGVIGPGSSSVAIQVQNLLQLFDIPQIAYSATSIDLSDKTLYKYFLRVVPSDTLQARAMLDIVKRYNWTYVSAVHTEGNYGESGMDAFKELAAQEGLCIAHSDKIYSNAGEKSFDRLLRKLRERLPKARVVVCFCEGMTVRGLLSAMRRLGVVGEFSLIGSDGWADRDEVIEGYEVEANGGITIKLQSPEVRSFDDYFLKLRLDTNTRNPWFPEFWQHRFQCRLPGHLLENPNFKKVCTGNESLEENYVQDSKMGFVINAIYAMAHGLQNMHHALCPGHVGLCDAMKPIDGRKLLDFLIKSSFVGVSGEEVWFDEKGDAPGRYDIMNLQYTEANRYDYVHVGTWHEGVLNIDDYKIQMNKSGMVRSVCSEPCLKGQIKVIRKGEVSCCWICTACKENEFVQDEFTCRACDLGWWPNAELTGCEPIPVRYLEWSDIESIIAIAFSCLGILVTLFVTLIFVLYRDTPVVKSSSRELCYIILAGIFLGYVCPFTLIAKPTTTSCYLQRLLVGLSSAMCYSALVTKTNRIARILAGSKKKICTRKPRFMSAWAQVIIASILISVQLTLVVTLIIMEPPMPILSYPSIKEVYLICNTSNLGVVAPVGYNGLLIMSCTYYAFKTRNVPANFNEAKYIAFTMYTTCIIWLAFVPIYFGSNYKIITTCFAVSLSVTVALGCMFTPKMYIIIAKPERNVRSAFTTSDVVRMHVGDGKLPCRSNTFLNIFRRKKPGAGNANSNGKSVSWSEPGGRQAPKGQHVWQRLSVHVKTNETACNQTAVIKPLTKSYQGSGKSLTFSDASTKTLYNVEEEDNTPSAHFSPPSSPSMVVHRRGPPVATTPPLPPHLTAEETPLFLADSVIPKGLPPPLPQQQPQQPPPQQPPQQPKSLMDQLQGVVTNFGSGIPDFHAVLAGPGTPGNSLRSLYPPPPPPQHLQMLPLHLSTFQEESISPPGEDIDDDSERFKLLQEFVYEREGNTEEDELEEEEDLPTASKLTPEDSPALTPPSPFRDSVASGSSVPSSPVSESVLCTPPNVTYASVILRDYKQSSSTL

| SMILES | EC50 (human mGlu1; [5]) [nM] | human mGlu1 Glumax (human mGlu1; [5]) [%] | improvement in mGlu1 PAM potency over HTS hit 6 (human mGlu1; human mGlu1 EC50 ratio) [fold] | EC50 (rat mGlu1) [nM] | rat mGlu1 Glumax (rat mGlu1) [%] | human fuplasma [1] | rat fuplasma [2] | rat fubrain (brain homogenate binding) | CLhep, human [3] [mL/min/kg] | CLhep, rat [4] [mL/min/kg] | human mGlu1 EC50 (Glumax), result in words (human mGlu1; [5]) |
| --- | --- | --- | --- | --- | --- | --- | --- | --- | --- | --- | --- |
| O=C(NCc1cnn2ccccc12)c1cc(Cl)ccc1Cl [Compound 9d, 2,5-Dichloro-N-(pyrazolo[1,5-a]pyridin-3-ylmethyl)benzamide] | 3790 | 46 | ~3 | – | – | – | – | – | – | – | – |
| O=C(NCc1noc(-c2ccccc2)n1)c1cc(-c2ccco2)ccc1Cl [Compound 15b, 2-Chloro-5-(furan-2-yl)-N-((5-phenyl-1,2,4-oxadiazol-3-yl)methyl)benzamide] | 39 | 56 | – | 62 | 106 | 0.001 | 0.004 | 0.005 | 19.9 | 61.8 | – |
| Cn1nc(C(F)(F)F)cc1CNC(=O)c1cc(-c2ccco2)ccc1Cl [Compound 15f, 2-Chloro-5-(furan-2-yl)-N-((1-methyl-3-(trifluoromethyl)-1H-pyrazol-5-yl)methyl)benzamide] | 188 | 60 | – | 280 | 74 | 0.036 | 0.025 | 0.019 | 20.3 | 57.1 | – |
| O=C(NCc1cnc(-c2cccs2)s1)c1cc(-c2ccco2)ccc1Cl [Compound 15e, 2-Chloro-5-(furan-2-yl)-N-((2-(thiophen-2-yl)thiazol-5-yl)methyl)benzamide] | 96 | 71 | – | 301 | 51 | 0.001 | 0.003 | 0.002 | 19.7 | 57.4 | – |
| Cn1nc(-c2cccnc2)cc1CNC(=O)c1cc(-c2ccco2)ccc1Cl [Compound 19c, 2-Chloro-5-(furan-2-yl)-N-((1-methyl-3-(pyridin-3-yl)-1H-pyrazol-5-yl)methyl)benzamide] | 74 | 60 | – | 124 | 116 | 0.023 | 0.015 | 0.021 | 18.8 | 51.7 | – |
| COc1ccc(C)cc1C(=O)NCc1cnn2ccccc12 [Compound 9b, 2-Methoxy-5-methyl-N-(pyrazolo[1,5-a]pyridin-3-ylmethyl)benzamide] | 7380 | 62 | – | – | – | – | – | – | – | – | – |
| O=C(NCc1nc(C2CC2)no1)c1cc(-c2ccco2)ccc1Cl [Compound 15d, 2-Chloro-N-((3-cyclopropyl-1,2,4-oxadiazol-5-yl)methyl)-5-(furan-2-yl)benzamide] | 714 | 80 | – | 509 | 95 | – | – | – | – | – | – |
| COc1ccc(OC)c(C(=O)NCc2cnn3ccccc23)c1 [Compound 9a, 2,5-Dimethoxy-N-(pyrazolo[1,5-a]pyridin-3-ylmethyl)benzamide] | 5120 | 45 | – | – | – | – | – | – | – | – | – |
| O=C(NCc1cnn2ccccc12)c1cc(-c2ccsc2)ccc1Cl [Compound 9h, 2-Chloro-N-(pyrazolo[1,5-a]pyridin-3-ylmethyl)-5-(thiophen-3-yl)benzamide] | 641 | 35 | – | – | – | – | – | – | – | – | – |
| O=C(NCc1cc(-c2ccccc2)no1)c1cc(-c2ccco2)ccc1Cl [Compound 15a, 2-Chloro-5-(furan-2-yl)-N-((3-phenylisoxazol-5-yl)methyl)benzamide] | 211 | 96 | – | – | – | 0.001 | 0.009 | – | 19.4 | 60.9 | – |
| O=C(NCc1cnn2ccccc12)c1cc(-c2nccs2)ccc1Cl [Compound 9i, 2-Chloro-N-(pyrazolo[1,5-a]pyridin-3-ylmethyl)-5-(thiazol-2-yl)benzamide] | 790 | 61 | – | 3150 | 79 | – | – | – | – | – | – |
| O=C(NCc1cnn2ccccc12)c1cc(-c2cccs2)ccc1Cl [Compound 9g, 2-Chloro-N-(pyrazolo[1,5-a]pyridin-3-ylmethyl)-5-(thiophen-2-yl)benzamide] | 291 | 51 | – | 369 | 75 | – | – | – | – | – | – |
| Cn1nc(-c2cccs2)cc1CNC(=O)c1cc(-c2ccco2)ccc1Cl [Compound 19a, 2-Chloro-5-(furan-2-yl)-N-((1-methyl-3-(thiophen-2-yl)-1H-pyrazol-5-yl)methyl)benzamide] | 56 | 69 | – | 20 | 109 | 0.002 | 0.002 | 0.003 | 19.0 | 54.8 | – |
| Cn1nccc1-c1ccc(Cl)c(C(=O)NCc2cnn3ccccc23)c1 [Compound 9j, 2-Chloro-5-(1-methyl-1H-pyrazol-5-yl)-N-(pyrazolo[1,5-a]pyridin-3-ylmethyl)benzamide] | – | – | – | – | – | – | – | – | – | – | Inactive |
| COc1ccc(Cl)cc1C(=O)NCc1cnn2ccccc12 [Compound 6, 5-Chloro-2-methoxy-N-(pyrazolo[1,5-a]pyridin-3-ylmethyl)benzamide] | > 10000 | 71 | – | – | – | – | – | – | – | – | – |
| Cn1nc(-c2ccccc2F)cc1CNC(=O)c1cc(-c2ccco2)ccc1Cl [Compound 19b, 2-Chloro-N-((3-(2-fluorophenyl)-1-methyl-1H-pyrazol-5-yl)methyl)-5-(furan-2-yl)benzamide] | 195 | 85 | – | 133 | 116 | 0.002 | 0.002 | 0.003 | 18.6 | 56.4 | – |
| Cc1ccc(Cl)cc1C(=O)NCc1cnn2ccccc12 [Compound 9c, 5-Chloro-2-methyl-N-(pyrazolo[1,5-a]pyridin-3-ylmethyl)benzamide] | 6060 | 47 | – | – | – | – | – | – | – | – | – |
| O=C(NCc1noc(C2CC2)n1)c1cc(-c2ccco2)ccc1Cl [Compound 15c, 2-Chloro-N-((5-cyclopropyl-1,2,4-oxadiazol-3-yl)methyl)-5-(furan-2-yl)benzamide] | 10000 | 44 | – | – | – | – | – | – | – | – | – |
| O=C(NCc1cnn2ccccc12)c1cc(-c2ccccc2)ccc1Cl [Compound 9f, 4-Chloro-N-(pyrazolo[1,5-a]pyridin-3-ylmethyl)-[1,1′-biphenyl]-3-carboxamide] | 434 | 33 | – | 1010 | 48 | – | – | – | – | – | – |
